Results from article PMC5856786, “A DHODH inhibitor increases p53 synthesis and enhances tumor cell killing by p53 degradation blockage” (Nature Communications, 2018).

Key:
[1] = tested on: U2OS cells; assay: PI flow cytometry, sub-G1 cells, U2OS; type: cell-based; settings: DMSO 72 h + 48 h, 2 μM nutlin-3a last 48 h
Description: (§1) Cell cycle distribution analysis was performed on a Becton Dickinson FACScan flow cytometer or FACSCalibur (BD Biosciences) following staining with propidium iodide (PI) or dual labeling with BrdU and PI[36]. These assays were analyzed using CellQuest Pro (BD Biosciences).

[2] = tested on: U2OS cells; assay: Annexin V/PI apoptosis flow cytometry; type: cell-based; settings: HZ05 72 h, washed, nutlin-3a 48 h
Description: Fig. 7 HZ05 increases p53 levels in S-phase cells. a U2OS cells were treated with DMSO (vehicle) or HZ05 (1 μM) for 72 h. The upper left panel is a representative dot plot showing the gating strategy for cells expressing high p53 levels (blue: HZ05 treated and red: DMSO treated). […] A representative histogram of the fluorescence intensity of FITC-p53 in S-phase cells is shown in the lower right panel. Bar graphs show the average of three independent experiments. Unpaired t-test was employed to assess statistical significance using GraphPad Prism version 7 (****p < 0.0001 and ***p < 0.001). b U2OS cells were pretreated with HZ05 for 72 h, washed with medium containing DMSO or nutlin-3a, and then provided with fresh medium containing DMSO or nutlin-3a. After an additional 48 h, Annexin V and PI staining was analyzed by flow cytometry. The average of two independent experiments ± SD is shown. c Hypothetical model describing the combination of DHODH inhibition with mdm2 antagonists. […] Inhibition of p53 degradation in the form of an mdm2 antagonist leads to death of cells in S-phase
For the detection of apoptotic cells, the Annexin V-FITC Apoptosis detection kit (Ab#14085) was used with analysis conducted using FlowJo software V10.2.

[3] = tested on: HNDF cells; assay: PI flow cytometry, sub-G1 cells, HNDF; type: cell-based, human; settings: DMSO 72 h + 48 h, 2 μM nutlin-3a last 48 h
Description: as §1

[4] = tested on: ARN8 cells; assay: PI flow cytometry, sub-G1 cells, ARN8; type: cell-based, human; settings: ARN8 72 h
Description: as §1

[5] = tested on: ARN8 xenograft; assay: ARN8 subcutaneous xenograft; type: in vivo; settings: ARN8 xenograft; (R)-HZ05 75 mg/kg q.d. s.c. or nutlin-3a 50 mg/kg b.i.d. orally
Description: All animal xenograft experiments were approved by the Norwegian Animal Research Authority and conducted according to The European Convention for the Protection of Vertebrates Used for Scientific Purposes. […] The health status and weight of the mice were monitored daily and they were randomized in a non-blinded manner into 4 groups when tumor volumes reached 30–40 mm^3. […] Tumor volumes were measured every second day by a digital caliper using the following ellipsoid formula: Volume = π (length × width × height)/6.
To determine the efficacy of (R)-HZ05 in combination with nutlin-3a, 4 groups of NSG mice (n = 8 per group) were subcutaneously injected in the flank region with a single 100 μL injection of 2 × 10^6 ARN8 cells in a solution of PBS:Matrigel (volume ratio 3:1). Treatment was initiated when tumors reached ~50 mm^3. The maximum tolerated dose for this combination of drugs was previously determined for the strain we used. The endpoint of the experiment was determined by the tumor size ([…]) weight loss, and general condition of the mice according to The Norwegian Animal Research Authority.

[6] = tested on: MV411 cells; assay: PI flow cytometry, sub-G1 cells, MV411; type: cell-based; settings: DMSO 72 h + 48 h, 2 μM nutlin-3a last 48 h
Description: as §1

[7] = Pharmacokinetic study, nutlin-3a single or co-administered with (R)-HZ05; type: in vivo, NOD-SCID mice; settings: mice; nutlin-3a 50 mg kg-1 oral + (R)-HZ05 75 mg kg-1 s.c.
Description: collected from the retro-orbital plexus of three mice per group per time point at the following times: pre-dose, 0.08, 0.25, 0.5, 1, 2, 4, 8, and 24 h. Samples were collected into tubes with 20 % potassium-EDTA solution. Plasma was separated at 4000 rpm for 10 minutes at 4 °C and stored at -70 °C until analysis. 25 µL of study sample or spiked plasma calibration standards were added to individual tubes followed by 100 µL of Glipizide at 500 ng mL-1 as an internal standard. Samples were centrifuged at 4000 rpm at 4 °C for 10 minutes. 100 µL of cleared supernatant was transferred to 96-well plates and analyzed using a Waters ACQUITY UPLC connected to an AB Sciex API 4000 QTRAP in MRM mode with positive electrospray ionization with an ion spray voltage of 5500 V. The mobile phase was A: 0.1 % formic acid in acetonitrile and B: 0.1 % formic acid in water through a phenomenex Kinetex EVO C18 (5 µm, 100 × 4.6 mm) kept at 45 °C. […]
Samples were centrifuged at 4000 rpm at 4 °C for 10 minutes. 100 µL of cleared supernatant was transferred to 96-well plates and analyzed using a Waters ACQUITY UPLC connected to an AB Sciex API 4000 QTRAP in MRM mode with positive electrospray ionization with an ion spray voltage of 5500 V. The mobile phase was A: 0.1 % formic acid in acetonitrile and B: 0.1 % formic acid in water through a phenomenex Kinetex EVO C18 (5 µm, 100 × 4.6 mm) kept at 45 °C. […]

COc1ccc(C2=N[C@@H](c3ccc(Cl)cc3)[C@@H](c3ccc(Cl)cc3)N2C(=O)N2CCNC(=O)C2)c(OC(C)C)c1 [nutlin-3a, reference compound]
sub-G1 cells [1]: 1.1% | effect of nutlin-3a after HZ05 pre-treatment and wash-out [2]: triggered cell death | sub-G1 cells [3]: 1.2% | DMSO control subtracted effect (cells in sub-G1) ([4]; HZ05 0 nM + nutlin-3a 5 µM): 0.05 | DMSO control subtracted effect (cells in sub-G1) ([4]; HZ05 0 nM + nutlin-3a 10 µM): 0.07 | DMSO control subtracted effect (cells in sub-G1) ([4]; HZ05 0 nM + nutlin-3a 15 µM): 0.12 | DMSO control subtracted effect (cells in sub-G1) ([4]; HZ05 0 nM + nutlin-3a […]): 0.10 | sub-G1 cells ([4]; nutlin-3a 1 μM): 0.8% | sub-G1 cells ([4]; nutlin-3a 2.5 μM): 1.59% | sub-G1 cells ([4]; nutlin-3a 5 μM): 3.52% | xenograft tumor growth, single agent [5]: ineffective | sub-G1 cells [6]: 37.2% | half-life on co-administration with (R)-HZ05 [7]: not prolonged
